Measurements reported in patent US8476300B2, “Selective estrogen receptor modulator for the treatment of osteoarthritis” (Eli Lilly and Company, priority 2008, dated 2013).

Experiments:
[1] = target: T1, ERα receptor (Homo sapiens, UniProt P03372); assay: Estrogen receptor competition binding assay (3H-estradiol displacement), ERα; conditions: geometric mean±standard deviation, from IC50 by Cheng-Prusoff, read-out: Ki-α
T1 sequence (P03372 1-595): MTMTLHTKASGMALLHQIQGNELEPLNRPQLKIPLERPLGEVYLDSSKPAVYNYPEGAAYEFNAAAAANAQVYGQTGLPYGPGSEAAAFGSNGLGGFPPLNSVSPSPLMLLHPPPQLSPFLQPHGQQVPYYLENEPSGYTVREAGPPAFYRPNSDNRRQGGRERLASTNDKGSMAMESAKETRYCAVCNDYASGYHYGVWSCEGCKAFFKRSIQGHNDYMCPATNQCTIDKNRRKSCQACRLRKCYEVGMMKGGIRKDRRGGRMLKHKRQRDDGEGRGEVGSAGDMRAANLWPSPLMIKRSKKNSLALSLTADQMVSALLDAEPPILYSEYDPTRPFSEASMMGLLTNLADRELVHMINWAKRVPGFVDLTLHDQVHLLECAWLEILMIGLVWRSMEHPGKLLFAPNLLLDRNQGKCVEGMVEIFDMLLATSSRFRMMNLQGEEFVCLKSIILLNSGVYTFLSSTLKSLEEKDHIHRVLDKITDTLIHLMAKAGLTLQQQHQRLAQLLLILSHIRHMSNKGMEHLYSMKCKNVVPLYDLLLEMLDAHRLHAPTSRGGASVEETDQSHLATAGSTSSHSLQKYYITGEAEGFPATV
Protocol: (§1) Estrogen Receptor Binding Assay:
(§2) Compounds are tested for binding affinity to both estrogen receptor types (ERα and ERβ) by a competition binding assay that measures the compound's ability to displace ^3H-estradiol from the receptors. IC50 and Ki values for both receptor types can be calculated.
(§3) A competition binding assay is run in a buffer containing 50 mM HEPES buffering reagent, pH 7.5, 1.5 mM ethylenediaminetetraacetic acid (“EDTA”), 150 mM NaCl, 10% glycerol, 1 mg/mL ovalbumin and 5 mM dithiothreitol (“DTT”), using 0.025 μCi per well ^3H-Estradiol (NEN#NET517 at 118 Ci/mmol, 1 mCi/mL), 10 ng/well ERα or ERβ receptor. A test compound is added at 10 different concentrations. Non-specific binding is determined in the presence of 1 μM of estradiol (17 β-estradiol). The binding reaction (140 μL) is incubated for 4 hours at room temperature, then 70 μl of cold DCC buffer is added to each reaction (DCC buffer contains per 50 mL of assay buffer, 750 mg of charcoal and 250 mg of dextran). Plates are mixed 8 minutes on an orbital shaker at 4° C. […] After an incubation of 2.5 hours, the plates are read in a counter. […] The Kd for ^3H-Estradiol is determined by saturation binding to ERα and ERβ receptors. The IC50 values for test compounds are converted to Ki using the Cheng-Prusoff equation, and the Kd determined by saturation binding assay.

[2] = target: ERβ receptor (Homo sapiens, UniProt Q92731); assay: Estrogen receptor competition binding assay (3H-estradiol displacement), ERβ; conditions: geometric mean±standard deviation, from IC50 by Cheng-Prusoff, read-out: Ki-β
Chain of ERβ receptor (Q92731 whole entry): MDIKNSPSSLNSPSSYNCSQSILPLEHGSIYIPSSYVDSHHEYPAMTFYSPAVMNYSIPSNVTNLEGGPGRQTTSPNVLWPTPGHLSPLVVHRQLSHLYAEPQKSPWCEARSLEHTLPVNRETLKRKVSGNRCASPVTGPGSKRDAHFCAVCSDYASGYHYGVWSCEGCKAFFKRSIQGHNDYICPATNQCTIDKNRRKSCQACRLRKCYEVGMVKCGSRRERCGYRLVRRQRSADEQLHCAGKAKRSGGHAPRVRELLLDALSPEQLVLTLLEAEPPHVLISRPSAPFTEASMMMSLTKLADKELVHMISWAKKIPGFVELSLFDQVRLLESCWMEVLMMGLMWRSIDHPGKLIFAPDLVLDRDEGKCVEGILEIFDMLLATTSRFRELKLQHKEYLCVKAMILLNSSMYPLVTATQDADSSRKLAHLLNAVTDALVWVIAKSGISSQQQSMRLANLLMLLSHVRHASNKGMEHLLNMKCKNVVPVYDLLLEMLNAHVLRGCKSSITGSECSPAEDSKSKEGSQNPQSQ
Protocol: as §1, §2, §3

[3] = system: Ishikawa cells; assay: Ishikawa cell proliferation assay (alkaline phosphatase readout; agonist and antagonist modes); format: cell-based; conditions: for agonist activity: agonist mode, compound alone, versus the response to tamoxifen
Protocol: Ishikawa Cell Proliferation Assay:
This assay measures cell proliferation (using an alkaline phosphatase readout) in both an agonist mode in the presence of a test compound alone, and in an antagonist mode in which the ability of a test compound to block estradiol stimulation of growth is measured.
After an overnight incubation, Ishikawa cells are rinsed with Dulbecco's Phosphate Buffered Saline (“D-PBS”) without Ca^+2 and Mg^+2, and trypsinized by a 3 minute incubation with 0.25% Trypsin/EDTA, phenol red-free. Cells are re-suspended in assay medium and adjusted to 250,000 cells/mL. Approximately 25,000 cells in a 100 μl media are added to flat-bottom 96 wells microculture plates and incubated at 37° C. in a 5% CO2 humidified incubator for 24 hours. The next day, serial dilutions of compounds are prepared in assay medium (at 6 times the final concentration in the assay). The assay is run in dual mode, agonist and antagonist modes.
For the agonist mode, plates receive 25 μL/well of assay medium followed by 25 μL/well of a diluted test compound (at 6× the final concentrations). For the antagonist mode, plates receive 25 μL/well of 6 nM 17 β-estradiol (“E2”) followed by 25 μL/well of a diluted test compound (at 6× the final concentrations). After an additional 48-hour incubation at 37° C. in a 5% CO2 humidified incubator, media is aspirated from wells and 100 μL fresh assay medium is added to each microculture. Serial dilutions of compounds are prepared and added to the cells as described above. After an additional 72 hour incubation at 37° C. in a 5% CO2 humidified incubator, the assay is quenched by removing media and rinsing plates twice in D-PBS. The plates are dried for 5 minutes and frozen at −70° C. for at least 1 hour. The plates are then removed from the freezer and allowed to thaw at room temperature. After a 20-minute incubation, plates are read on a spectophotometer at 405 nm.
The data are fitted using a 4 parameter fit model to derive EC50 (for agonist mode) or IC50 (for antagonist mode) values. For the antagonist mode, a % efficacy for each compound is calculated versus E2 (1 nM) alone. For the agonist mode, a % efficacy for each compound is calculated versus the response to tamoxifen. […] The average agonist activity of the compound of Example 1 alone was 17.7%±11.3% (n=4) (arithmetric mean±standard deviation). The values for the compound of Example 1 may be compared to 4-hydroxytamoxifen which generally results in >100% agonist activity.

[4] = system: immature rat uterus (estrogen-induced uterine weight); assay: 3-Day immature rat uterus antagonist assay; format: in vivo; conditions: oral, 3 days, with EE2 0.1 mg/kg
From the text: 3-Day Immature Rat Uterus Antagonist Assay:
This model for uterine antagonism utilizes immature (3 week old) female rats that are highly sensitive to estrogenic stimulation of the uterus given that their circulating estrogen levels are prepubertal. The uteri from immature rats are fully responsive to exogenous estrogen, yet are quiescent in the absence of exogenous estrogen. Administration of exogenous estrogen to immature rats produces a reliable elevation of uterine weight, which can be used to study uterine antagonist effects. The rats are treated with both estradiol and 4 different concentrations of a test compound for 3 days and then uterine wet weights are measured. […]
Uterine weight/body weight ratios (UWR) are calculated for each animal. The percent inhibition of the estrogen-induced response is then calculated by the following formula: percent inhibition=100×(UWRestrogen−UWRtest compound)/(UWRestrogen−UWRcontrol)
ED50 values are derived from a semi-log regression analysis of the linear aspect of the dose response curve. Both the UWR data and the percent inhibition data are statistically analyzed by one way analysis of variance (ANOVA) with post-hoc testing by Fisher's PLSD when indicated by a p<0.05.

[5] = system: OVX rat uterus; assay: 4-Day OVX rat uterine agonist assay; format: in vivo
Protocol: 4-Day OVX Rat Uterine Agonist Assay:
Seventy-five day old rats are ovariectomized and treatment is started 14 days later when circulating estradiol levels have reached minimal levels. After 4 days of treatment with 3 doses of a test compound, (6 rats per group) body weight, uterine wet weight and uterine eosinophil peroxidase (EPO) activity are measured. Cholesterol levels are also measured to compare relative ability to lower cholesterol with other SERMs. If there is any question of uterine stimulation, histological examination will determine epithelial cell height.
A significant (>10% of the increase induced by estradiol @0.1 mg/kg) and dose-responsive increase in uterine EPO activity is used as an early indicator of potential uterine agonist activity. […] None of the groups dosed with the compound of Example 1 evidenced an increase in EPO activity that was >10% of that induced by estradiol at 0.1 mg/Kg. Significant, dose-related increases in uterine endometrial thickness have also been used as an early sign of potential SERM uterine agonist activity.

[6] = system: OVX/MCT animals; assay: OVX/Meniscal tear model of OA; format: in vivo, rat
Protocol: The rat meniscal tear (MCT) model is a well-described model of OA in which joint damage and pain are induced by surgical intervention (transection of the medial meniscus) in one knee joint. In the standard MCT model using male rats, joint pathology develops progressively and is measured via joint histology at 3 weeks post-surgery.

[7] = system: pCTX-II; assay: P-CTXII biomarker; format: in vivo
From the text: pCTX-II is believed to be a useful biomarker reflecting efficacy relating to the treatment of OA. See for example, Garnero P et al Ann Rheum Dis 2003; 62:939-943; Mazieres B et al, Arthritis Rheum 2003; 48:5683

[8] = marker of cartilage type II collagen turnover; cited from earlier work
[9] = n=4, arithmetic mean±standard deviation

Row | Ki [1] | Ki [2] | increase in EPO activity relative to that induced by estradiol at 0.1 mg/Kg ([5]; all dose groups) | melting point | Molecule | IC50 ([3]; Homo sapiens, Ishikawa, antagonist mode, n=4, geometric mean±standard deviation, read-out: relative IC50) | agonist activity [3, 9] | antagonist efficacy ([3]; antagonist mode, versus E2 (1 nM) alone, n=4, arithmetic mean±standard deviation) | ED50 (inhibition of estrogen-induced uterine weight/body weight ratio) [4] | uterine endometrial thickness, dose related increase vs OVX group ([5]; doses up to 10 mg/kg) | uterine EPO activity, dose related increase vs OVX group ([5]; doses up to 10 mg/kg, 4 days, Tukey Kramer p<0.05) | doses with statistically significant pain reduction vs OVX/MCT group ([6]; OVX animals, meniscal tear) | joint pain ([6]; OVX animals, meniscal tear) | reduction in joint pain compared with 17α-ethynylestradiol ([6]; doses of 3 and 10 mg/kg) | pCTX-II levels compared with 17α-ethynylestradiol treatment ([7]; all doses) | pCTX-II ([7]; in vivo) | urinary levels of CTX-II [8]
1 | 0.15 ± 0.22 nM | 0.2 ± 0.2 nM | up to 10% | 248.82 °C | Cc1ccc(-c2ccc3cc(O)ccc3c2Oc2ccc(OCCN3CCCCC3)cc2)s1.Cl [Example 1, 6-(5-methylthiophen-2-yl)-5-(4-(2-(piperidin-1-yl)ethoxy)phenoxy)naphthalen-2-ol hydrochloride] | 3.75 ± 1.71 nM | 17.7%±11.3% | 102%±8.4% | 0.053 mg/kg | did not result in significant, dose related increases in uterine endometrial thickness | no significant dose related increases in EPO activity | ≥ 1.0 mg/kg | reduced pain in a dose-dependent fashion | not statistically different from those induced by 17α-ethynylestradiol | not statistically different from those resulting from treatment with 17α-ethynylestradiol | significantly and dose-dependently reduced pCTX-II | 
2 |  |  |  |  | 4-hydroxytamoxifen [reference compound] |  | > 100% |  |  |  |  |  |  |  |  |  | 
3 |  |  |  |  | COc1ccc2c(c1)OC(C)(C)[C@@H](c1ccccc1)[C@@H]2c1ccc(OCCN2CCCC2)cc1 [levormeloxifene] |  |  |  |  |  |  |  |  |  |  |  | significantly decrease the urinary levels of CTX-II
